The values that follow come from US20260217767A1, “NOVEL A4B7 THIOETHER PEPTIDE DIMER ANTAGONISTS” (Protagonist Therapeutics, Inc., priority 2014, published 2026).

Where a SMILES comes first, the peptide text is derived from it.

For the first assay, the target named is T1, RPMI 8866 cells (Homo sapiens, UniProt P13612+P26010).
T1 sequence (P13612 34-1032): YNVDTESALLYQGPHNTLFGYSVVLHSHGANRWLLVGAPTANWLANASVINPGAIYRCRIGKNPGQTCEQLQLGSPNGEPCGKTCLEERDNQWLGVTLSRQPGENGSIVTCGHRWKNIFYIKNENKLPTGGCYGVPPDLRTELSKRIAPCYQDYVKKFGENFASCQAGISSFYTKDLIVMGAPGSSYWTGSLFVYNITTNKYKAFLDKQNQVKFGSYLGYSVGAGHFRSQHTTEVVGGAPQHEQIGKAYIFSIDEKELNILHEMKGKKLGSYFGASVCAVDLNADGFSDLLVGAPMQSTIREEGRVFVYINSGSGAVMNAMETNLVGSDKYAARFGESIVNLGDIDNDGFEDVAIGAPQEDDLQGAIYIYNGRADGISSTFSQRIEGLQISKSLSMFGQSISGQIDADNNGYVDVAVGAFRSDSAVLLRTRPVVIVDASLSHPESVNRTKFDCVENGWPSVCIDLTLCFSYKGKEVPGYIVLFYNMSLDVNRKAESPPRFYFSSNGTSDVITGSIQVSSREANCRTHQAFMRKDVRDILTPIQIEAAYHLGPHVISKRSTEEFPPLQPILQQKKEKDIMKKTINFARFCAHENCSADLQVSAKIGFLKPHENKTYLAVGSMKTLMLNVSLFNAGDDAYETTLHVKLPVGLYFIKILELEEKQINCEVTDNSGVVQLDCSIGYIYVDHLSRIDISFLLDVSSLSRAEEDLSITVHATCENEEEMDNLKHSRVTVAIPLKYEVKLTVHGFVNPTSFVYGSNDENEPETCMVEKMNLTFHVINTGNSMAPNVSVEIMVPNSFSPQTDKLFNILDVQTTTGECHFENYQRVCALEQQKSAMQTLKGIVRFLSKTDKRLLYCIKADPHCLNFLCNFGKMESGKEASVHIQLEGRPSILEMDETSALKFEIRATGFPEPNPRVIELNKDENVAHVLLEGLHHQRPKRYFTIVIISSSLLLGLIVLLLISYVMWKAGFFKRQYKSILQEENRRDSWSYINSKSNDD
T1 sequence (P26010 20-798): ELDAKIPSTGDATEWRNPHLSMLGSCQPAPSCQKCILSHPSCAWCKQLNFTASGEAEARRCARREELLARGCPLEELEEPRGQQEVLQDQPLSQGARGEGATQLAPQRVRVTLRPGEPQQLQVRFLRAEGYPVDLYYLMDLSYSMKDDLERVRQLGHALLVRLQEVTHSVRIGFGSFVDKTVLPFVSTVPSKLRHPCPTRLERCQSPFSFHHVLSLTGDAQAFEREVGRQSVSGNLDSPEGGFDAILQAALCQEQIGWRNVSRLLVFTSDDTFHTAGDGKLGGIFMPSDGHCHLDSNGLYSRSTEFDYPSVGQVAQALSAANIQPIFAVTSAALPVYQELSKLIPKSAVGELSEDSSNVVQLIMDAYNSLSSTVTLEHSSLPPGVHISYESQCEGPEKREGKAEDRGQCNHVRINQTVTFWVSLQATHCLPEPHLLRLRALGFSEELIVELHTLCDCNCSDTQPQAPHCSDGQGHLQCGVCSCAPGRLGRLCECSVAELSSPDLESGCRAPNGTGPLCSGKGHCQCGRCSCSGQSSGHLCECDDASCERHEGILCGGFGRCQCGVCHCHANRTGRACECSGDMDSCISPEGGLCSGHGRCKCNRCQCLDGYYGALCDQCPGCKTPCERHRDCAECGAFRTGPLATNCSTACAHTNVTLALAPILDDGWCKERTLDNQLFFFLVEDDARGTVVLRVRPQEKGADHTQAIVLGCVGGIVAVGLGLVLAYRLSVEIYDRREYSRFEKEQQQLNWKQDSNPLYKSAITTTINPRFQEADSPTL
The assay is described as follows: α4β7-MAdCAM Cell Adhesion Assay. It is filed as cell-based. To be noted: thioether monomer peptides, Table 6; read-out: Cell-Adhesion A4B7. The method, boiled down: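 Peptide inhibition of adhesion measured with MAdCAM-1/Fc chimera immobilised at 200 ng/well and MnCl2-activated (1 mM) RPMI 8866 cells, 30-45 min at 37° C. Adherent cells remaining after three washes detected by MTT reduction at 570 nm, corrected for no-cell wells, giving dose response.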
As for `CC(C)C[C@@H]1NC(=O)[C@H]([C@@H](C)O)NC(=O)[C@H](CC(=O)O)NC(=O)[C@H](CO)NC(=O)[C@H](CCCNC(=N)N)N(C)C(=O)c2ccccc2CSC[C@@H](C(=O)N[C@@H](Cc2c[nH]c3ccccc23)C(=O)N[C@@H](CCC(=O)O)C(=O)N[C@H](CCCCN)C(N)=O)NC1=O` [compound 55] (HELM PEPTIDE1{[meR].S.D.T.L.C.W.E.[dK].[am]}|CHEM1{[O=C(c1ccccc1C[*:2])[*:1]]}$PEPTIDE1,CHEM1,1:R1-1:R1|PEPTIDE1,CHEM1,6:R3-1:R2$$$V2.0), the IC50 lay within 100 to 1000 nM.

With `CC(C)C[C@@H]1NC(=O)[C@H]([C@@H](C)O)NC(=O)[C@H](CC(=O)O)NC(=O)[C@H](CO)NC(=O)[C@H](CCCNC(=N)N)N(C)C(=O)c2ccccc2CSC(C)(C)[C@@H](C(=O)N[C@@H](Cc2cccc3ccccc23)C(=O)N[C@H](CCC(=O)O)C(=O)N(C)[C@@H](CCCCN)C(N)=O)NC1=O` [compound 69] (HELM PEPTIDE1{[meR].S.D.T.L.[Pen].[O=C([C@H](Cc1cccc2ccccc12)N[*:1])[*:2]].[dE].[meK].[am]}|CHEM1{[O=C(c1ccccc1C[*:2])[*:1]]}$PEPTIDE1,CHEM1,1:R1-1:R1|PEPTIDE1,CHEM1,6:R3-1:R2$$$V2.0), the IC50 was in the range of 100 to 1000 nM. As for `CC(=O)NCCCC[C@@H](NC(=O)[C@H](CCC(=O)O)NC(=O)[C@H](Cc1c[nH]c2ccccc12)NC(=O)[C@H]1NC(=O)[C@H](CC(C)C)NC(=O)[C@H]([C@@H](C)O)NC(=O)[C@H](CC(=O)O)NC(=O)[C@H](CO)NC(=O)[C@H](CCCNC(=N)N)N(C)C(=O)c2ccccc2CSC1(C)C)C(N)=O` [compound 80] (HELM PEPTIDE1{[meR].S.D.T.L.[Pen].W.E.[dK].[am]}|PEPTIDE2{[ac]}|CHEM1{[O=C(c1ccccc1C[*:2])[*:1]]}$PEPTIDE1,PEPTIDE2,9:R3-1:R2|PEPTIDE1,CHEM1,1:R1-1:R1|PEPTIDE1,CHEM1,6:R3-1:R2$$$V2.0), the IC50 lay within 25 to 100 nM. As to `CC(=O)NCCCC[C@@H](NC(=O)[C@@H](CCC(=O)O)NC(=O)[C@H](Cc1c[nH]c2ccccc12)NC(=O)[C@H]1NC(=O)[C@H](CC(C)C)NC(=O)[C@H]([C@@H](C)O)NC(=O)[C@H](CC(=O)O)NC(=O)[C@H](CO)NC(=O)[C@H](CCCNC(=N)N)N(C)C(=O)c2ccccc2CSC1(C)C)C(N)=O` [compound 81] (HELM PEPTIDE1{[meR].S.D.T.L.[Pen].W.[dE].[dK].[am]}|PEPTIDE2{[ac]}|CHEM1{[O=C(c1ccccc1C[*:2])[*:1]]}$PEPTIDE1,PEPTIDE2,9:R3-1:R2|PEPTIDE1,CHEM1,1:R1-1:R1|PEPTIDE1,CHEM1,6:R3-1:R2$$$V2.0), the IC50 lay within 25 to 100 nM.

`CC(=O)NCCCC[C@@H](NC(=O)[C@H](CCC(=O)O)NC(=O)[C@H](Cc1cccc2ccccc12)NC(=O)[C@H]1NC(=O)[C@H](CC(C)C)NC(=O)[C@H]([C@@H](C)O)NC(=O)[C@H](CC(=O)O)NC(=O)[C@H](CO)NC(=O)[C@H](CCCNC(=N)N)N(C)C(=O)c2ccccc2CSC1(C)C)C(N)=O` [compound 89] (HELM PEPTIDE1{[meR].S.D.T.L.[Pen].[O=C([C@H](Cc1cccc2ccccc12)N[*:1])[*:2]].E.[dK].[am]}|PEPTIDE2{[ac]}|CHEM1{[O=C(c1ccccc1C[*:2])[*:1]]}$PEPTIDE1,PEPTIDE2,9:R3-1:R2|PEPTIDE1,CHEM1,1:R1-1:R1|PEPTIDE1,CHEM1,6:R3-1:R2$$$V2.0): the IC50 is 100 to 1000 nM.

Take `CC(=O)NCCCC[C@@H](NC(=O)[C@@H](CCC(=O)O)NC(=O)[C@H](Cc1ccc(O)cc1)NC(=O)[C@H]1NC(=O)[C@H](CC(C)C)NC(=O)[C@H]([C@@H](C)O)NC(=O)[C@H](CC(=O)O)NC(=O)[C@H](CO)NC(=O)[C@H](CCCNC(=N)N)N(C)C(=O)c2ccccc2CSC1(C)C)C(N)=O` [compound 91] (HELM PEPTIDE1{[meR].S.D.T.L.[Pen].Y.[dE].[dK].[am]}|PEPTIDE2{[ac]}|CHEM1{[O=C(c1ccccc1C[*:2])[*:1]]}$PEPTIDE1,PEPTIDE2,9:R3-1:R2|PEPTIDE1,CHEM1,1:R1-1:R1|PEPTIDE1,CHEM1,6:R3-1:R2$$$V2.0): the IC50 lay in the range of 100 to 1000 nM. With `CC(C)C[C@@H]1NC(=O)[C@H]([C@@H](C)O)NC(=O)[C@H](CC(=O)O)NC(=O)[C@H](CO)NC(=O)[C@H](CCCNC(=N)N)N(C)C(=O)c2ccccc2CSC(C)(C)[C@@H](C(=O)N[C@@H](Cc2c[nH]c3ccccc23)C(=O)N[C@@H](CCC(=O)O)C(=O)N[C@@H](CN)C(N)=O)NC1=O` [compound 92] (HELM PEPTIDE1{[meR].S.D.T.L.[Pen].W.E.[NC[C@H](N[*:1])C(=O)[*:2]].[am]}|CHEM1{[O=C(c1ccccc1C[*:2])[*:1]]}$PEPTIDE1,CHEM1,1:R1-1:R1|PEPTIDE1,CHEM1,6:R3-1:R2$$$V2.0), the IC50 was 25 to 100 nM. In the case of `CC(C)C[C@@H]1NC(=O)[C@H]([C@@H](C)O)NC(=O)[C@H](CC(=O)O)NC(=O)[C@H](CO)NC(=O)[C@H](CCCNC(=N)N)N(C)C(=O)c2ccccc2CSC(C)(C)[C@@H](C(=O)N[C@@H](Cc2c[nH]c3ccccc23)C(=O)N[C@@H](CCC(=O)O)C(=O)N[C@@H](CCN)C(N)=O)NC1=O` [compound 93] (HELM PEPTIDE1{[meR].S.D.T.L.[Pen].W.E.[Dab].[am]}|CHEM1{[O=C(c1ccccc1C[*:2])[*:1]]}$PEPTIDE1,CHEM1,1:R1-1:R1|PEPTIDE1,CHEM1,6:R3-1:R2$$$V2.0), the IC50 was in the range of 25 to 100 nM. On to `CC(C)C[C@@H]1NC(=O)[C@H]([C@@H](C)O)NC(=O)[C@H](CC(=O)O)NC(=O)[C@H](CO)NC(=O)[C@H](CCCNC(=N)N)N(C)C(=O)c2ccccc2CSC(C)(C)[C@@H](C(=O)N[C@@H](Cc2c[nH]c3ccccc23)C(=O)N[C@H](CCC(=O)O)C(=O)N[C@@H](CN)C(N)=O)NC1=O` [compound 94] (HELM PEPTIDE1{[meR].S.D.T.L.[Pen].W.[dE].[NC[C@H](N[*:1])C(=O)[*:2]].[am]}|CHEM1{[O=C(c1ccccc1C[*:2])[*:1]]}$PEPTIDE1,CHEM1,1:R1-1:R1|PEPTIDE1,CHEM1,6:R3-1:R2$$$V2.0), for which the IC50 lay within 100 to 1000 nM. For `CC(C)C[C@@H]1NC(=O)[C@H]([C@@H](C)O)NC(=O)[C@H](CC(=O)O)NC(=O)[C@H](CO)NC(=O)[C@H](CCCNC(=N)N)N(C)C(=O)c2ccccc2CSC(C)(C)[C@@H](C(=O)N[C@@H](Cc2c[nH]c3ccccc23)C(=O)N[C@H](CCC(=O)O)C(=O)N[C@@H](CCN)C(N)=O)NC1=O` [compound 95] (HELM PEPTIDE1{[meR].S.D.T.L.[Pen].W.[dE].[Dab].[am]}|CHEM1{[O=C(c1ccccc1C[*:2])[*:1]]}$PEPTIDE1,CHEM1,1:R1-1:R1|PEPTIDE1,CHEM1,6:R3-1:R2$$$V2.0), the IC50 is 100 to 1000 nM. On to `CC(C)C[C@@H]1NC(=O)[C@H]([C@@H](C)O)NC(=O)[C@H](CC(=O)O)NC(=O)[C@H](CO)NC(=O)[C@H](CCCNC(=N)N)N(C)C(=O)c2ccccc2CSC(C)(C)[C@@H](C(=O)N[C@@H](Cc2c[nH]c3ccccc23)C(=O)N[C@@H](CCC(=O)O)C(N)=O)NC1=O` [compound 96] (HELM PEPTIDE1{[meR].S.D.T.L.[Pen].W.E.[am]}|CHEM1{[O=C(c1ccccc1C[*:2])[*:1]]}$PEPTIDE1,CHEM1,1:R1-1:R1|PEPTIDE1,CHEM1,6:R3-1:R2$$$V2.0), for which the IC50 lay within 100 to 1000 nM.

The same assay, now with this note: thioether peptide dimers, Table 7; read-out: Cell-Adhesion A4B7.
On to `CC(C)C[C@@H]1NC(=O)[C@H]([C@@H](C)O)NC(=O)[C@H](CC(=O)O)NC(=O)[C@H](CO)NC(=O)[C@H](CCCNC(=N)N)N(C)C(=O)C(C)SC[C@@H](C(=O)N[C@@H](Cc2c[nH]c3ccccc23)C(=O)N[C@H](CCCCN)C(N)=O)NC1=O` (single isomer, unassigned) [compound 144], for which the IC50 is more than 1000 nM.
